Patent US20260098026A1, “M4 ACTIVATORS/MODULATORS AND USES THEREOF” (Cerevel Therapeutics, LLC, priority 2022, published 2026)

How the values were obtained:
Assay type in all cases: cell-based
M4 mAChR = target: T1, M4 mAChR (Homo sapiens, UniProt P08173); assay: cAMP TR-FRET assay with forskolin, M4-overexpressing CHO-K1 cells
T1 construct: expressed in transfected cells; host or cells: CHO-K1
T1 sequence (P08173 1-479): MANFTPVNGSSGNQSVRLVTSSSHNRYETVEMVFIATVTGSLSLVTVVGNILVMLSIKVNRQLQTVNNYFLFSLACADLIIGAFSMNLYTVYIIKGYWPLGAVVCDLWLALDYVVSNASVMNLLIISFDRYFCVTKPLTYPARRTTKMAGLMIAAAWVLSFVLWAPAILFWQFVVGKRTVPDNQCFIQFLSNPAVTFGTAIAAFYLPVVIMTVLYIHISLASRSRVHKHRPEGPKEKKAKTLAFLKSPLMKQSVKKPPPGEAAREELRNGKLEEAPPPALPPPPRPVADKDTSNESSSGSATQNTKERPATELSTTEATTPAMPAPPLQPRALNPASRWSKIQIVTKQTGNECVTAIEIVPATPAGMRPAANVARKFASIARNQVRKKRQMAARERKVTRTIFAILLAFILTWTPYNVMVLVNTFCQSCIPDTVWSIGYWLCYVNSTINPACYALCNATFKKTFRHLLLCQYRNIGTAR
Procedure, shortened: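 CHO-K1 cells overexpressing the receptor were stimulated with forskolin to raise cAMP, so that Gi-mediated agonist decreases could be measured. cAMP was quantified by TR-FRET competition between cellular cAMP and labelled donor for anti-cAMP antibody, giving potency and efficacy.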

[1] = target: T2, M3 muscarinic acetylcholine receptor (mAChR) (Homo sapiens, UniProt P20309); assay: FLIPR calcium assay (Fluo 8), M3-overexpressing CHO-K1 cells
T2 construct: expressed in transfected cells; host or cells: CHO-K1
T2 sequence (P20309 whole entry): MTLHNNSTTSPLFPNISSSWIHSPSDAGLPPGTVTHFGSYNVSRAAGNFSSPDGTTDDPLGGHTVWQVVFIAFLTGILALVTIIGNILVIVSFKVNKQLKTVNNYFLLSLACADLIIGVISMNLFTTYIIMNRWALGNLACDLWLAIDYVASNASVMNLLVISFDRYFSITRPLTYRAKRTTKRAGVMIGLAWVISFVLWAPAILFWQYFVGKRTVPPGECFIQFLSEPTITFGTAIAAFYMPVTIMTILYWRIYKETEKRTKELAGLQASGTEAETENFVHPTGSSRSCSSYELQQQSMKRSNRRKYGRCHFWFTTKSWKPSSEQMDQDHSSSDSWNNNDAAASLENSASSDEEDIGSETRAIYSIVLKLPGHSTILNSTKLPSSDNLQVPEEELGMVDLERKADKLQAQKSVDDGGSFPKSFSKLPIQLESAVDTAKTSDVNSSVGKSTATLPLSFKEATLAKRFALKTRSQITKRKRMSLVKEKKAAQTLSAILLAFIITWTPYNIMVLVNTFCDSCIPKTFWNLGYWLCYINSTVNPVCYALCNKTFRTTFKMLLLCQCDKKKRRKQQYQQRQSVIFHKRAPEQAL
Procedure, shortened: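 CHO-K1 cells overexpressing each human receptor seeded at 15,000 per well, grown overnight at 37° C., 5% CO2, then loaded with Fluo-8 for 30 min. Compounds in HBSS added and calcium response read on FLIPR; EC50 and Emax calculated per subtype.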

[2] = target: T3, M1 muscarinic acetylcholine receptor (mAChR) (Homo sapiens, UniProt P11229); assay: FLIPR calcium assay (Fluo 8), M1-overexpressing CHO-K1 cells
T3 construct: expressed in transfected cells; host or cells: CHO-K1
T3 sequence (P11229 1-460): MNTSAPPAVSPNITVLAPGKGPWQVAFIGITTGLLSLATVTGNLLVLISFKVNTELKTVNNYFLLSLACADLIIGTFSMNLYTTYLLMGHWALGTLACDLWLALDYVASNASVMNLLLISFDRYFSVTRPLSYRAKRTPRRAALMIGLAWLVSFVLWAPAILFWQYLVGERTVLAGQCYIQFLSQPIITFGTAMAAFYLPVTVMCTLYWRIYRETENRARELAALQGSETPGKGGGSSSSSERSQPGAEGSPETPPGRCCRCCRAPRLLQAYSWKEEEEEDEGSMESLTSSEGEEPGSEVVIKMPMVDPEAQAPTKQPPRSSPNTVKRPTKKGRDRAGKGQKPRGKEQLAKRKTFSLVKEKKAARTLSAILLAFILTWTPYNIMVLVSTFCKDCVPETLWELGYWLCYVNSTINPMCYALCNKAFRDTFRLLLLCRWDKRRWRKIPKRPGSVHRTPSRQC
Experimental: Stimulation of a Gq-coupled G-protein coupled receptors (GPCRs), result in an efflux of calcium from the endoplasmic reticulum to the cytoplasm (Berridge, 1993), thus rendering this assay appropriate for the assessment of M1, M3 and M5 receptors. CHO-K1 cells overexpressing the M1, M3, or M5 muscarinic acetylcholine receptor (mAChR) were dispensed at 15,000 cells per well in 30 μl volume to 384-well plates and grown overnight at 37° C. in a 5% CO2 atmosphere. Fluo-8 Solution, 10 μl per well, was added to each well and incubated for 30 minutes at 37° C. in a 5% CO2 atmosphere. Compounds diluted in Hanks' balanced salt solution (HBSS) were transferred to the cell assay plate at 10 μl per well, and then read on a FLIPR instrument. EC50 and Emax figures were calculated from the resulting data for each receptor subtype.

Compound | Emax (M4 mAChR; cAMP TR-FRET with forskolin) [%] | EC50 ([1]; FLIPR calcium) [µM] | Emax ([2]; FLIPR calcium) [%] | Emax (M4 mAChR; cAMP assay) [%] | EC50 ([1]; FLIPR) [µM] | Emax ([2]; FLIPR) [%]
CCOC(=O)N1CC2(CC[C@@H](N3CCN(c4cc(F)cnc4-c4conc4C)CC3)C2)C1 [Compound A140] | 80 to 100 | > 10 | 19 to 49.9 |  |  | 
CCOC(=O)N1CC2(CC[C@@H](N3CCN(c4cc(F)cnc4-c4cnc(OC)nc4)CC3)C2)C1 [Compound A146] | 80 to 100 | > 10 | 19 to 49.9 |  |  | 
CCOC(=O)N1CC2(CC[C@@H](N3CCN(c4cc(F)cnc4-c4cnc(OC(C)C)nc4)CC3)C2)C1 [Compound A158] |  |  |  | 80 to 100 | > 10 | 19 to 49.9
CCOC(=O)N1CC2(CC[C@@H](N3CCN(c4cc(F)cnc4-c4cnc(F)nc4)CC3)C2)C1 [Compound A184] |  |  |  | 80 to 100 | > 10 | 19 to 49.9
CCOC(=O)N1CC2(CC[C@@H](N3CCN(c4cc(F)cnc4-c4cnc(C)nc4)CC3)C2)C1 [Compound A185] |  |  |  | 80 to 100 | > 10 | 19 to 49.9
CCOC(=O)N1CC2(CC[C@@H](N3CCN(c4cc(F)cnc4-c4ccc(Cl)cn4)CC3)C2)C1 [Compound A259] |  |  |  | 80 to 100 | > 10 | 
CCOC(=O)N1CC2(CC[C@@H](N3CCN(c4cc(C#N)cnc4-c4cnccn4)CC3)C2)C1 [Compound A272] |  |  |  | 19 to 49.9 | > 10 | 
CCOC(=O)N1CC2(CC[C@@H](N3CCN(c4cc(F)cnc4C4CCN(C)CC4)CC3)C2)C1 [Compound A273] |  |  |  | 80 to 100 | > 10 | 
CCOC(=O)N1CC2(CC[C@H](N3CCN(c4cc(F)cnc4C4CCOCC4)CC3)C2)C1 [Compound A274] |  |  |  | 80 to 100 | > 10 | 
CCOC(=O)N1CC2(CC[C@@H](N3CCN(c4cc(Cl)cnc4C4CC5(COC5)C4)CC3)C2)C1 [Compound A279] |  |  |  | 80 to 100 | > 10 | 
CCOC(=O)N1CC2(CC[C@@H](N3CCN(c4cc(F)cnc4-c4ncccc4F)CC3)C2)C1 [Compound A283] |  |  |  | 80 to 100 | > 10 | 
CCOC(=O)N1CC2(CC[C@@H](N3CCN(c4cc(F)cnc4-c4ccnc(F)n4)CC3)C2)C1 [Compound A284] |  |  |  | 80 to 100 | > 10 | 
CCOC(=O)N1CC2(CC[C@@H](N3CCN(c4cc(F)cnc4-c4cnn(C(F)(F)F)c4)CC3)C2)C1 [Compound A285] |  |  |  | 80 to 100 | > 10 | 
CCOC(=O)N1CC2(CC[C@@H](N3CCN(c4cc(F)cnc4NC4CC5(COC5)C4)CC3)C2)C1 [Compound A288] |  |  |  | 19 to 49.9 | > 10 | 
CCOC(=O)N1CC2(CC[C@@H](N3CCN(c4cc(F)cnc4N4CCOCC4)CC3)C2)C1 [Compound A289] |  |  |  | 80 to 100 | > 10 | 19 to 49.9
CCOC(=O)N1CC2(CC[C@@H](N3CCN(c4cc(F)cnc4-n4cnc(C)c4)CC3)C2)C1 [Compound A290] |  |  |  | 80 to 100 | > 10 | 
CCOC(=O)N1CC2(CC[C@@H](N3CCN(c4cc(F)cnc4-n4ccc(C)n4)CC3)C2)C1 [Compound A291] |  |  |  | 50 to 79.9 | > 10 | 
CCOC(=O)N1CC2(CC[C@H](N3CCC(c4cc(F)cnc4-c4ccc(F)cn4)CC3)C2)C1 [Compound A293] |  |  |  | 80 to 100 | > 10 | 
